Test results published in patent EP0283151A2, “Prostaglandins useful for lowering intraocular pressure” (ALLERGAN, INC, priority 1987, dated 1988).
Marks after values point to notes of the source that are not given here.

Legend:
[1] = IOP effects in conscious rabbits, applanation pneumatonometry; assay type: in vivo, New Zealand-Dutch Belt cross rabbits; parameters: IOP (Test): unit not given here; conditions: for IOP (Test): treated eye; for concentration having the same effect in lowering intraocular pressure: solution applied to the eye
Protocol: (§1) The ocular hypotensive activity of these compounds was measured by applanation pneumatonometry.
The effect of 0.1 percent PGF2α on IOP versus 0.01% solution of the 9,11,15 triacetyl ester of PGF2α was measured in New Zealand-Dutch Belt cross rabbits. Intraocular pressure was measured by applanation pneumatonometry in conscious animals. Nine animals were used for each experiment. The data from this study as summarized in Table I show about a 10-fold difference in the activity of 9,11,15-triacetyl PGF2α compound over PGF2α.

[2] = Duration of IOP-lowering action in cats after topical application; assay type: in vivo; parameters: unit not given here; conditions: topical 0.1%, 25μL
Protocol: as §1
The duration of action of the triester (9,11,15-triacetyl ester) in comparison with that of the native PGF2α was tested in cats.

| SMILES | concentration having the same effect in lowering intraocular pressure [1] | Test IOP ([2]; 0.0 hours) | Test IOP ([2]; 0.5 hours) | Test IOP ([2]; 1.0 hours) | Test IOP ([2]; 2.0 hours) | Test IOP ([2]; 3.0 hours) | Test IOP ([2]; 4.0 hours) | Test IOP ([2]; 6.0 hours) | Test IOP ([2]; 24.0 hours) | Test IOP ([2]; -0.5 hours) | also measured |
| --- | --- | --- | --- | --- | --- | --- | --- | --- | --- | --- | --- |
| CCCCC[C@H](O)/C=C/[C@@H]1[C@@H](C/C=C\CCCC(=O)O)[C@@H](O)C[C@H]1O [PGF2α, reference compound] | 0.1% | 19.8 | 18.2 | 15.4* | 14.5* | 15.3* | 16.7* | 21.5 | 19.8 | 19.7 | IOP (Test) ([1]; rabbits, 0.1% solution, 0 hours): 21.67; IOP (Test) ([1]; rabbits, 0.1% solution, 0.5 hours): 23.00; IOP (Test) ([1]; rabbits, 0.1% solution, 1.0 hours): 24.00; IOP (Test) ([1]; rabbits, 0.1% solution, 1.5 hours): 24.35; IOP (Test) ([1]; rabbits, 0.1% solution, 2.0 hours): 22.67; IOP (Test) ([1]; rabbits, 0.1% solution, 2.5 hours): 20.92; IOP (Test) ([1]; rabbits, 0.1% solution, 3.5 hours): 19.50*; IOP (Test) ([1]; rabbits, 0.1% solution, 4.5 hours): 20.75 |
| CCCCC[C@@H](/C=C/[C@H]1C(OC(C)=O)C[C@H](OC(C)=O)[C@@H]1C/C=C\CCCC(=O)O)OC(C)=O (stereo partly drawn) [Triester, (5Z,9α,13E,15S)-9,11,15-triacetoxyprosta-5,13-dienoic acid] | 0.01% | 20.6 | 18.6 | 17.9* | 17.0* | 18.0* | 17.8* | 18.8* | 20.0* | 21.2 | IOP (Test) ([1]; rabbits, 0.01% solution, 0 hours): 24.39; IOP (Test) ([1]; rabbits, 0.01% solution, 0.5 hours): 24.67; IOP (Test) ([1]; rabbits, 0.01% solution, 1.0 hours): 23.56; IOP (Test) ([1]; rabbits, 0.01% solution, 1.5 hours): 22.72*; IOP (Test) ([1]; rabbits, 0.01% solution, 2.0 hours): 21.33*; IOP (Test) ([1]; rabbits, 0.01% solution, 2.5 hours): 20.83*; IOP (Test) ([1]; rabbits, 0.01% solution, 3.5 hours): 22.22*; IOP (Test) ([1]; rabbits, 0.01% solution, 4.5 hours): 23.28; increase in potency in terms of lowering IOP compared to PGF2α ([1]; rabbits, 0.01% triacetyl ester versus 0.1% PGF2α): ~10 fold |
